Measured values published in patent US11439624B2, “Promoting sleep using AT1 receptor blockers” (UNIVERSITY OF PITTSBURGH—OF THE COMMONWEALTH SYSTEM OF …, priority 2012, dated 2022).

Experiments:
[1] = tested on: rats in the stress-induced insomnia model; assay: stress-induced insomnia model in rats (cage exchange; EEG and EMG recording); assay type: in vivo, rat; conditions: for average of REM sleep / average of nREM sleep / average of wakefulness along the entire experiment: aprox. 6 hours after cage exchange and drug injection; for average of REM sleep: vehicle 2%; for average of nREM sleep: vehicle 45%; for average of wakefulness along the entire experiment: vehicle 52%; for REM sleep (range depending on the hour): vehicle 0-4%; for sleep latency: stressed (cage exchanged) rats, i.p. just prior to transfer to soiled cage, candesartan 1 or 5 mg/kg, azilsartan 0.5 mg/kg, vehicle 68±10 minutes; for abnormal wave components in the EEG (power spectrum analysis): treated rats in the insomnia model
Protocol: Rats in the stress-induced insomnia model (25) were treated with candesartan intraperitoneally (i.p.; 1 mg/kg or 5 mg/kg). In the model, insomnia is induced by transferring male rats at the peak of their normal sleep cycle into a soiled cage previously occupied during one week by another male rat. This simple procedure induces a psychological or social stress response in the rats, which are very territorial animals. The sequence of sleep disturbances in cage exchanged rats is similar to that observed in humans with primary insomnia. In rats, there is an initial delay in sleep onset and increased wakefulness that resemble the difficulties falling asleep at the beginning of the night, or initial insomnia, observed in humans after a stressful day. Eventually, insomniacs fall asleep because of the sleep pressure, as rats do. But later, as the night progresses, they usually experience insomnia characterized by decreased nREM sleep, frequent awakenings, and poor quality sleep, similar to what we observed in the stressed rats. Candesartan was injected i.p. just prior to transferring the rats (n=7 for the 1 mg/kg treatment and n=4 for the 5 mg/kg treatment) to the soiled cage. EEG and EMG activity were recorded continuously to determine the behavioral state (wake, nREM or REM sleep) along several hours. Control rats (n=6) were injected with vehicle and also placed in a soiled cage and recorded. […] REM sleep is increased to 6-12% (depending on the hour) compared with vehicle treated rats (0-4%). In an additional study, Azilsartan was tested using the same stress-induced insomnia model in rats as was used in Example 1. Azilsartan, which mainly acts as an inverse agonist of AT1 receptors, has been reported to have a potent effect in the treatment of hypertension at a single daily dose compared to twice-a-day doses commonly used for other AT1 receptor blockers. For this reason, we used a lower dose of azilsartan (0.5 mg/kg) than the dose used for candesartan. Azilsartan was injected i.p. just prior to transferring the rats (n=4) to the soiled cage. EEG and EMG activity were recorded continuously to determine the behavioral state (wake, nREM or REM sleep) along several hours, as explained above.

[2] = tested on: humans treated for hypertension; conditions: cited from earlier work
[3] = candesartan 1 or 5 mg/kg i.p., azilsartan 0.5 mg/kg i.p.

Compound | more sleep in the last two hours of the experiment compared to candesartan-treated rats ([1]; 4 hours after injection of the drug, azilsartan 0.5 mg/kg i.p.) [%] | average of REM sleep [1] [%] | average of nREM sleep [1] [%] | average of wakefulness along the entire experiment [1] [%] | percentage of nREM sleep (range depending on the hour) ([1]; azilsartan 0.5 mg/kg i.p.) | REM sleep (range depending on the hour) [1, 3] | sleep latency [1] [min] | abnormal wave components in the EEG (power spectrum analysis) [1] | effect on sleep disturbances induced by stress ([1]; validated rat model of stress-induced insomnia) | duration of effect compared with other AT1 receptor blockers [2] | nREM sleep increase compared with vehicle treated rats (depending on the hour) ([1]; candesartan 1 or 5 mg/kg i.p.)
CCOc1nc2cccc(C(=O)O)c2n1Cc1ccc(-c2ccccc2-c2noc(=O)[nH]2)cc1 [azilsartan] | 20 | 10 | 68 | 22 | 50-82% | 3-15% | 60 ± 3 | does not seem to induce abnormal wave components in the EEG | ameliorate sleep disturbances induced by stress | longer-lasting effect than other AT1 receptor blockers | 
CCOc1nc2cccc(C(=O)O)c2n1Cc1ccc(-c2ccccc2-c2nnn[nH]2)cc1 [candesartan] |  | 7.5 | 57 | 35 |  | 6-12% | 38 ± 3 | does not induce abnormal wave components in the EEG |  |  | 20-40%
